{
  "source": "paper PMC9296036",
  "about": "“A peptide interfering with the dimerization of oncogenic KITENIN protein and its stability suppresses colorectal tumour progression” (Clinical and Translational Medicine, 2022)",
  "system": "Caco2/KITENIN-V5 cells",
  "test": "Autophagosome staining (Cyto-ID) in Caco2/KITENIN-V5 cells",
  "format": "cell-based",
  "details": "KDIP 5 μM, similar to rapamycin positive control",
  "procedure": "To test whether KDIP induces autophagy in KITENIN‐expressing Caco2 cells, cells were grown on coverslips for 24 h. Cells were washed with PBS and then stained with Cyto‐ID green fluorescence reagents (Enzo Life Sciences, Plymouth Meeting, PA) for 1 h at 37°C in a cell culture incubator. Cells were washed with PBS and mounted with […] mounting medium containing nuclear DAPI (Vector Lab). Cells were imaged by confocal microscope.\nFIGURE 3 RACK1 binds to KAI1 C‐terminal interacting tetraspanin (KITENIN) and KITENIN dimerization‐interfering peptide (KDIP) stimulates the degradation of KITENIN by inducing increased binding of RACK1 to KITENIN. (A) RACK1 specifically binds to KITENIN. Caco2/KITENIN‐V5 cells were transfected with RACK1‐GFP for 48 h, immunoprecipitated with anti‐GFP antibody and immunoblotted with anti‐V5 antibody to detect KITENIN bound with RACK1 (left panel). […] The proteins in whole‐cell lysate (WCL) were detected with the indicated antibody. […] Caco2 cells were transfected with KITENIN‐V5 and/or RACK1‐GFP (left) or KITENIN‐V5 and/or si‐RACK1 (right), and their expression after treatment with KDIP (1 μM, 24 h) was detected with the indicated antibody (upper) or subjected to invasion assay (lower). […] Caco2/KITENIN‐V5 cells were treated with KDIP for 24 h and assessed by immunoblot analyses using an anti‐KITENIN, an anti‐p62, or an anti‐LC3B antibody (left panel). […]",
  "note": "Ends that are not written are not given here.",
  "data": [
    {"sequence": "YARVRRRGPRRWRLVSDEAV [KDIP]", "values": [
      {"measurement": "formation of the autophagosome (in words)", "result": "increased"}
    ]}
  ]
}
